Here are results for 23 compounds from PubChem BioAssay AID330 (DTP/NCI, 2004).

“And” between values parts separate entries of the source, which are not always exact repeats. Equal values may be shown once. Toxic doses and inconclusive results are not listed.

For the assay, the system named is P388 leukemia ip, CD2F1 mice, survival T/C. Description: NCI In Vivo Anticancer Drug Screen. Data for tumor model P388 Leukemia (intraperitoneal) in CD2F1 (CDF1) mice. The conditions noted are these: endpoint: median survival time, higher = longer survival. Put shortly:
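Mice carrying the transplanted tumor received test compound or vehicle. Survival was recorded in each group, and the value is the treated-group measurement divided by that of the vehicle-treated control group.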

[1] abbreviates: dose: 50.0 mg/kg/injection, schedule: Q01DX009 (ip), vehicle: saline with Tween-80.
The mark [2] stands for this setting: dose: 100.0 mg/kg/injection, schedule: Q01DX009 (ip), vehicle: saline with Tween-80.
Where [3] appears, read: dose: 200.0 mg/kg/injection, schedule: Q01DX009 (ip), vehicle: saline with Tween-80.
Setting [4] is: dose: 50.0 mg/kg/injection, schedule: Q01DX005 (ip), vehicle: saline with Tween-80.
[5] abbreviates: dose: 100.0 mg/kg/injection, schedule: Q01DX005 (ip), vehicle: saline with Tween-80.
Setting [6] is: dose: 200.0 mg/kg/injection, schedule: Q01DX005 (ip), vehicle: saline with Tween-80.
[7] abbreviates: dose: 3.13 mg/kg/injection, schedule: Q01DX009 (ip), vehicle: saline with Tween-80.
Setting [8] is: dose: 60.0 mg/kg/injection, schedule: Q01DX005 (ip), vehicle: saline with Tween-80.
The mark [9] stands for this setting: dose: 120.0 mg/kg/injection, schedule: Q01DX005 (ip), vehicle: saline with Tween-80.
Setting [10] is: dose: 240.0 mg/kg/injection, schedule: Q01DX005 (ip), vehicle: saline with Tween-80.
Setting [11] is: dose: 12.5 mg/kg/injection, schedule: Q01DX005 (ip), vehicle: saline with Tween-80.
Setting [12] is: dose: 25.0 mg/kg/injection, schedule: Q01DX005 (ip), vehicle: saline with Tween-80.

For `NC(=O)c1csc(C2OC3COP(=O)(O)OC3C2O)n1` (stereo unspecified), the T/C by setting is: (dose: 12.5 mg/kg/injection, schedule: Q01DX005 (ip), vehicle: water) 105 % of control; (dose: 25.0 mg/kg/injection, schedule: Q01DX005 (ip), vehicle: water) 105 % of control; (dose: 50.0 mg/kg/injection, schedule: Q01DX005 (ip), vehicle: water) 114 % of control and 118 % of control; (dose: 100.0 mg/kg/injection, schedule: Q01DX005 (ip), vehicle: water) 123 % of control and 124 % of control; (dose: 200.0 mg/kg/injection, schedule: Q01DX005 (ip), vehicle: water) 152 % of control; (dose: 400.0 mg/kg/injection, schedule: Q01DX005 (ip), vehicle: water) 155 % of control.

As to `CCC12COC3(C)CCC(C)(OC1)N23` (stereo unspecified), the T/C is 100 % of control (dose: 50.0 mg/kg/injection, schedule: Q01DX005 (ip), vehicle: saline); 91 % of control under setting [1]; 100 % of control (dose: 100.0 mg/kg/injection, schedule: Q01DX005 (ip), vehicle: saline); 91 % of control under setting [2]; 103 % of control (dose: 200.0 mg/kg/injection, schedule: Q01DX005 (ip), vehicle: saline); 98 % of control under setting [3].

Turning to `Nc1cc(C(F)(F)F)cc(N)c1N`, the T/C runs as follows: under setting [4], 104 % of control; under setting [5], 94 % of control; under setting [6], 99 % of control.

For `O=C1c2ccccc2C(=O)C(Cl)C1Cl` (stereo unspecified), the T/C runs as follows: (dose: 1.56 mg/kg/injection, schedule: Q01DX009 (ip), vehicle: saline with Tween-80) 100 % of control; under setting [7], 101 % of control.

In the case of `CCCCC1SC2=NCCCN2C1(O)c1ccc(Cl)cc1` (stereo unspecified), the T/C is 105 % of control under setting [1] and 106 % of control under setting [2].

As to `OCC1CC2C3CC(CO)C(C3)C2C1` (stereo unspecified), the T/C runs as follows: under setting [8], 105 % of control; under setting [9], 100 % of control; under setting [10], 98 % of control.

Consider `S=c1[nH]ncn2nc3ccccc3c12`, for which the T/C by setting is: under setting [4], 100 % of control; under setting [5], 97 % of control; under setting [6], 97 % of control.

Regarding `CCOC(=O)c1nnn(Cc2ccccc2)c1N`, the T/C is 104 % of control (dose: 12.5 mg/kg/injection, schedule: Q01DX009 (ip), vehicle: saline with Tween-80); 100 % of control (dose: 25.0 mg/kg/injection, schedule: Q01DX009 (ip), vehicle: saline with Tween-80); 100 % of control under setting [1]; 104 % of control under setting [2].

Regarding `C=C1C(=O)O[C@@H]2C3=C(C)C(=O)CC[C@]3(C)CC[C@@H]12`, the T/C (dose: 100.0 mg/kg/injection, schedule: Q04DX002 (ip), vehicle: saline with Tween-80) was 108 % of control.

As for `O=C(O)c1ccc(Cc2ccc(C(=O)O)cc2)cc1` (tested in a mixture with another compound), the T/C was 95 % of control (dose: 50.0 mg/kg/injection, schedule: Q01DX009 (ip), vehicle: saline); 99 % of control (dose: 100.0 mg/kg/injection, schedule: Q01DX009 (ip), vehicle: saline); 104 % of control (dose: 200.0 mg/kg/injection, schedule: Q01DX009 (ip), vehicle: saline).

On to `CCN(CC)CC(=O)Nc1ccc2c(c1)C(=O)c1cc(NC(=O)CN(CC)CC)ccc1-2`, for which the T/C is 86 % of control under setting [1], 94 % of control under setting [2] and 96 % of control under setting [3].

For `C=CC[P+](Cc1cccc(C)c1)(c1ccccc1)c1ccccc1`, the T/C was 99 % of control (dose: 0.78 mg/kg/injection, schedule: Q01DX009 (ip), vehicle: saline); 111 % of control (dose: 1.56 mg/kg/injection, schedule: Q01DX009 (ip), vehicle: saline); 104 % of control (dose: 3.13 mg/kg/injection, schedule: Q01DX009 (ip), vehicle: saline).

Turning to `COc1ccc(Cl)cc1NC(=O)c1ccco1`, the T/C under setting [8] was 96 % of control, the T/C under setting [9] is 99 % of control and the T/C under setting [10] is 98 % of control.

As for `C/C(=N\Nc1ccc([N+](=O)[O-])cc1[N+](=O)[O-])c1ccc[nH]1`, the T/C by setting is: (dose: 15.0 mg/kg/injection, schedule: Q01DX005 (ip), vehicle: saline with Tween-80) 96 % of control; (dose: 30.0 mg/kg/injection, schedule: Q01DX005 (ip), vehicle: saline with Tween-80) 87 % of control; under setting [8], 89 % of control.

`COc1cc(OC2OC(CO)C(O)C(O)C2O)c2c(O)c3c(=O)cc(C)oc3cc2c1` (stereo unspecified): the T/C is, setting by setting: (dose: 3.75 mg/kg/injection, schedule: Q01DX009 (ip), vehicle: Klucel (hydroxypropylcellulose) (HPC)) 100 % of control; (dose: 7.5 mg/kg/injection, schedule: Q01DX009 (ip), vehicle: Klucel (hydroxypropylcellulose) (HPC)) 100 % of control; (dose: 15.0 mg/kg/injection, schedule: Q01DX009 (ip), vehicle: Klucel (hydroxypropylcellulose) (HPC)) 94 % of control; (dose: 30.0 mg/kg/injection, schedule: Q01DX009 (ip), vehicle: Klucel (hydroxypropylcellulose) (HPC)) 101 % of control.

As for `CCSc1nc2ccc(Nn3nnnc3-c3ccccc3)cc2s1`, the T/C (dose: 1.56 mg/kg/injection, schedule: Q01DX009 (ip), vehicle: Klucel (hydroxypropylcellulose) (HPC)) was 105 % of control and 94 % of control; the T/C (dose: 3.12 mg/kg/injection, schedule: Q01DX009 (ip), vehicle: Klucel (hydroxypropylcellulose) (HPC)) is 99 % of control and 100 % of control; the T/C (dose: 6.25 mg/kg/injection, schedule: Q01DX009 (ip), vehicle: Klucel (hydroxypropylcellulose) (HPC)) is 93 % of control; the T/C (dose: 12.5 mg/kg/injection, schedule: Q01DX009 (ip), vehicle: Klucel (hydroxypropylcellulose) (HPC)) was 89 % of control and 95 % of control; the T/C (dose: 50.0 mg/kg/injection, schedule: Q01DX009 (ip), vehicle: Klucel (hydroxypropylcellulose) (HPC)) was 93 % of control; the T/C (dose: 200.0 mg/kg/injection, schedule: Q01DX009 (ip), vehicle: Klucel (hydroxypropylcellulose) (HPC)) was 92 % of control.

As to `Clc1ccc(N=C(SSC(Cl)(Cl)Cl)SSC(Cl)(Cl)Cl)cc1`, the T/C under setting [3] is 114 % of control.

Turning to `COc1cc2oc3c(C)c(=O)cc4oc(-c5ccccc5)cc(c2c2c1CCC(c1ccccc1)O2)c43` (stereo unspecified), the T/C is, setting by setting: (dose: 6.25 mg/kg/injection, schedule: Q01DX005 (ip), vehicle: saline with Tween-80) 106 % of control; (dose: 7.0 mg/kg/injection, schedule: Q01DX005 (ip), vehicle: Klucel (hydroxypropylcellulose) (HPC)) 116 % of control and 211 % of control; under setting [11], 106 % of control; (dose: 14.0 mg/kg/injection, schedule: Q01DX005 (ip), vehicle: Klucel (hydroxypropylcellulose) (HPC)) 98 % of control; under setting [12], 121 % of control; under setting [4], 124 % of control. Under setting [5], the T/C was 114 % of control.

For the compound `O=NNc1ccnc(-c2cc(NN=O)ccn2)c1`, the T/C was 114 % of control (dose: 3.12 mg/kg/injection, schedule: Q01DX009 (ip), vehicle: water); 120 % of control and 122 % of control (dose: 6.25 mg/kg/injection, schedule: Q01DX009 (ip), vehicle: water); 87 % of control (dose: 100.0 mg/kg/injection, schedule: Q01DX009 (ip), vehicle: water).

Regarding `N#CSCc1ccc(CSC#N)c(Cl)c1`, the T/C (dose: 1.56 mg/kg/injection, schedule: Q04DX003 (ip), vehicle: saline sonified) is 100 % of control; the T/C (dose: 2.08 mg/kg/injection, schedule: Q01DX009 (ip), vehicle: saline with Tween-80) is 109 % of control; the T/C under setting [7] is 100 % of control; the T/C (dose: 3.13 mg/kg/injection, schedule: Q04DX003 (ip), vehicle: saline sonified) is 104 % of control; the T/C (dose: 4.69 mg/kg/injection, schedule: Q01DX009 (ip), vehicle: saline with Tween-80) was 118 % of control; the T/C (dose: 6.25 mg/kg/injection, schedule: Q04DX003 (ip), vehicle: saline sonified) is 109 % of control.

Take `Cc1nnc2n1N=C1CC(C)(C)CC(=O)C1S2` (stereo unspecified): the T/C was 101 % of control under setting [1], 102 % of control under setting [2] and 94 % of control under setting [3].

For the compound `CCOc1ccc(C(CC)c2cc3c(cc2OC)OCO3)cc1` (stereo unspecified), the T/C (dose: 60.0 mg/kg/injection, schedule: Q01DX005 (ip), vehicle: saline + Tween-80 + alcohol) was 100 % of control; the T/C (dose: 120.0 mg/kg/injection, schedule: Q01DX005 (ip), vehicle: saline + Tween-80 + alcohol) was 100 % of control; the T/C (dose: 240.0 mg/kg/injection, schedule: Q01DX005 (ip), vehicle: saline + Tween-80 + alcohol) is 100 % of control.

Regarding `CCOc1ccc(/C=C/C(C)=N/NC(N)=Nc2ccc(Cl)cc2)cc1`, the T/C is 96 % of control under setting [11]; 97 % of control under setting [12]; 107 % of control and 97 % of control under setting [4].
